What was measured:
human GR [1] = biological target: T1, human GR (Homo sapiens, UniProt P04150); assay: Trans-Activation Modulation of Glucocorticoid Receptor (GRAMMER), MMTV-LUC reporter, agonist mode; format: cell-based; set-up: endogenous in cells; details: for Emax: A549, A549 cells, maximum activity, read-out: Transactivation A549 Cells GRAMMER Emax; for EC50: A549 cells, inflection point, read-out: Transactivation A549 Cells GRAMMER IP
T1 sequence (P04150 1-777): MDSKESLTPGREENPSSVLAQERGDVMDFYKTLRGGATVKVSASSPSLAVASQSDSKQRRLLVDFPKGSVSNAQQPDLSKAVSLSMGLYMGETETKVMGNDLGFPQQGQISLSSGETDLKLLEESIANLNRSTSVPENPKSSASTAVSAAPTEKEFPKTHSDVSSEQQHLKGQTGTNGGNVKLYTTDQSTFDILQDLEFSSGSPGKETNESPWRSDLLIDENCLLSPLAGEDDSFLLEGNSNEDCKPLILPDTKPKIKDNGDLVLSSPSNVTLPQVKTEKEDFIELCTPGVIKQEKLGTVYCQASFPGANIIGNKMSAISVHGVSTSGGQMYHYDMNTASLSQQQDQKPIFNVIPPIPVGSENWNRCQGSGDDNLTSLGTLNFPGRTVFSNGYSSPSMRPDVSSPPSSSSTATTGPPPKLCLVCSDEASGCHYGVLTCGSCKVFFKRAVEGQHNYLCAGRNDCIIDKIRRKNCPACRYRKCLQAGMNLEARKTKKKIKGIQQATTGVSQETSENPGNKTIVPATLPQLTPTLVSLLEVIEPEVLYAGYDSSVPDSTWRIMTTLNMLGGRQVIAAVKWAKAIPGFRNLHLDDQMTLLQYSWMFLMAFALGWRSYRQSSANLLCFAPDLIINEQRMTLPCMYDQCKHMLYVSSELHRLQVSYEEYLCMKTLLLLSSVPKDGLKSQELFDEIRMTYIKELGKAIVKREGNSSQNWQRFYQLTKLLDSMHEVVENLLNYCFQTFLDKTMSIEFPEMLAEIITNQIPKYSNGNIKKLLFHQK
Method in brief: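 Readout is luciferase from a modified MMTV LTR promoter after 24 h compound exposure alongside 10 nM dexamethasone (100% activity reference), DMSO ≤1%.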

human GR [2] = biological target: T1, human GR; assay: Transrepression Assay (GITAR), TNFα-β-lactamase reporter in U937 cells; format: cell-based; set-up: U937 cells contain an endogenous glucocorticoid receptor (GR); endogenous in cells; host or cells: U937 cells stably transfected with the TNF-alpha promoter/beta-lactamase reporter; details: for GITAR > GRAMM % SEP: GITAR Emax minus GRAMMER Emax; for EC50: U937 cells, inflection point, read-out: Transrepression U937 Cells GITAR IP
Method in brief: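 Repression normalised to 100 nM dexamethasone (100%), measured with CCF2-AM β-lactamase substrate after 70–90 min at room temperature. Stably transfected U937 cells were exposed to compound 30–45 min, then to PMA (5 ng/ml final) plus LPS (100 ng/ml final) overnight (~18 hr), 37° C.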

[3] = U-937, U937 cells, maximum activity, read-out: Transrepression U937 Cells GITAR Emax
[4] = U-937, activity repressed by 100 nM dexamethasone alone set as 100%, read-out: maximal activity in the transrepression (GITAR) assay

SMILES | Emax (human GR [1]) [%] | EC50 (human GR [1]) [nM] | GITAR > GRAMM % SEP (human GR [2]) [%] | EC50 (human GR [2]) [nM] | Emax (human GR [2]; [3]) [%] | Emax (human GR [2]; [4]) [%]
C[C@]12Cc3cnn(-c4ccc(F)cc4)c3C=C1CC[C@@H]2CN(CC#N)S(=O)(=O)c1ccc(-c2ccccc2)cc1 [Example 42, N-(cyanomethyl)-N-{[(4αR,5S)-1-(4-fluorophenyl)-4α-methyl-1,4,4α,5,6,7-hexahydrocyclopenta[f]indazol-5-yl]methyl}biphenyl-4-sulfonamide] | 4.2 | 228 | 15.1 | 391 | 19.2 | > 5
C[C@]12Cc3cnn(-c4ccc(F)cc4)c3C=C1CC[C@@H]2CN(CCc1ccccc1F)S(=O)(=O)Cc1ccccc1C(N)=O [Example 190, 2-{[([2-(2-fluorophenyl)ethyl]{[(4αR,5S)-1-(4-fluorophenyl)-4α-methyl-1,4,4α,5,6,7-hexahydrocyclopenta[f]indazol-5-yl]methyl}amino)sulfonyl]methyl}benzamide] | 65.1 | 424 | 12.4 | 388 | 77.4 | > 5
Cc1nn(C)c(Cl)c1S(=O)(=O)N(CC#N)C[C@H]1CCC2=Cc3c(cnn3-c3ccc(F)cc3)C[C@@]21C [Example 52, 5-chloro-N-(cyanomethyl)-N-{[(4αR,5S)-1-(4-fluorophenyl)-4α-methyl-1,4,4α,5,6,7-hexahydrocyclopenta[f]indazol-5-yl]methyl}-1,3-dimethyl-1H-pyrazole-4-sulfonamide] | 31.9 | 570 | 22.5 | 869 | 54.4 | > 5
COC(=O)c1sccc1S(=O)(=O)N(CC#N)C[C@H]1CCC2=Cc3c(cnn3-c3ccc(F)cc3)C[C@@]21C [Example 34, methyl 3-[((cyanomethyl){[(4αR,5S)-1-(4-fluorophenyl)-4α-methyl-1,4,4α,5,6,7-hexahydrocyclopenta[f]indazol-5-yl]methyl}amino)sulfonyl]thiophene-2-carboxylate] | 37 | 748 | 8.9 | 1780 | 45.9 | > 5
C[C@]12Cc3cnn(-c4ccc(F)cc4)c3C=C1CC[C@@H]2CN(CC1(O)CC1)S(=O)(=O)c1ccccc1F [Example 200, 2-fluoro-N-{[(4αR,5S)-1-(4-fluorophenyl)-4α-methyl-1,4,4α,5,6,7-hexahydrocyclopenta[f]indazol-5-yl]methyl}-N-[(1-hydroxycyclopropyl)methyl]benzenesulfonamide] | 57.5 | 47.9 | 28.4 | 308 | 85.9 | > 5
CC(C)(O)CN(C[C@H]1CCC2=Cc3c(cnn3-c3ccc(F)cc3)C[C@@]21C)S(=O)(=O)c1ccccc1F [Example 199, 2-fluoro-N-{[(4αR,5S)-1-(4-fluorophenyl)-4α-methyl-1,4,4α,5,6,7-hexahydrocyclopenta[f]indazol-5-yl]methyl}-N-(2-hydroxy-2-methylpropyl)benzenesulfonamide] | 58.6 | 96.8 | 22.2 | 506 | 80.8 | > 5
Cc1cc(S(=O)(=O)N(CC#N)C[C@H]2CCC3=Cc4c(cnn4-c4ccc(F)cc4)C[C@@]32C)c(C)o1 [Example 33, (4αR,5S)-5-({(cyanomethyl)[(2,5-dimethyl-3-furyl)sulfonyl]amino}methyl)-1-(4-fluorophenyl)-4α-methyl-1,4,4α,5,6,7-hexahydrocyclopenta[f]indazol-2-ium] | 15.2 | 1050 | 44.5 | 1200 | 59.7 | > 5
C[C@]12Cc3cnn(-c4ccc(F)cc4)c3C=C1CC[C@@H]2CN(CC#N)S(=O)(=O)Cc1ccccc1 [Example 48, N-(cyanomethyl)-N-{[(4αR,5S)-1-(4-fluorophenyl)-4α-methyl-1,4,4α,5,6,7-hexahydrocyclopenta[f]indazol-5-yl]methyl}-1-phenylmethanesulfonamide] | 8.8 | 995 | 15.7 | 175 | 24.5 | > 5

More lines, in order of falling EC50 (human GR [1]), values ahead:

Emax (human GR [1]) [%] | EC50 (human GR [1]) [nM] | GITAR > GRAMM % SEP (human GR [2]) [%] | EC50 (human GR [2]) [nM] | Emax (human GR [2]; [3]) [%] | Emax (human GR [2]; [4]) [%] | SMILES
11.4 | 2890 | 1.3 | 1390 | 12.8 | > 5 | C[C@]12Cc3cnn(-c4ccc(F)cc4)c3C=C1CC[C@@H]2CN(CC#N)S(=O)(=O)c1ccc(Oc2ccccn2)cc1 [Example 45, N-(cyanomethyl)-N-{[(4αR,5S)-1-(4-fluorophenyl)-4α-methyl-1,4,4α,5,6,7-hexahydrocyclopenta[f]indazol-5-yl]methyl}-4-(pyridin-2-yloxy)benzenesulfonamide]
2.8 | 2190 | 30.9 | 1350 | 33.8 | > 5 | Cn1cnc(S(=O)(=O)N(CC#N)C[C@H]2CCC3=Cc4c(cnn4-c4ccc(F)cc4)C[C@@]32C)c1 [Example 37, N-(cyanomethyl)-N-{[(4αR,5S)-1-(4-fluorophenyl}-4α-methyl-1,4,4α,5,6,7-hexahydrocyclopenta[f]indazol-5-yl]methyl}-1-methyl-1H-imidazole-4-sulfonamide]
18.1 | 866 | 36.0 | 832 | 54 | > 5 | C[C@]12Cc3cnn(-c4ccc(F)cc4)c3C=C1CC[C@@H]2CN(CC#N)S(=O)(=O)c1ccccc1-c1ccccc1 [Example 53, N-(cyanomethyl)-N-{[(4αR,5S)-1-(4-fluorophenyl)-4α-methyl-1,4,4α,5,6,7-hexahydrocyclopenta[f]indazol-5-yl]methyl}biphenyl-2-sulfonamide]
44.8 | 622 | 20.8 | 1050 | 65.6 | > 5 | C[C@]12Cc3cnn(-c4ccc(F)cc4)c3C=C1CC[C@@H]2CN(CC#N)S(=O)(=O)c1cc(F)cc(F)c1 [Example 44, N-(cyanomethyl)-3,5-difluoro-N-{[(4αR,5S)-1-(4-fluorophenyl)-4α-methyl-1,4,4α,5,6,7-hexahydrocyclopenta[f]indazol-5-yl]methyl}benzenesulfonamide]
53 | 254 |  | 268 | 84.5 | > 5 | C[C@]12Cc3cnn(-c4ccc(F)cc4)c3C=C1CC[C@@H]2CN(CCC#N)S(=O)(=O)c1ccccc1F [Example 16, N-(2-cyanoethyl)-2-fluoro-N-{[(4αR,5S)-1-(4-fluorophenyl)-4α-methyl-1,4,4α,5,6,7-hexahydrocyclopenta[f]indazol-5-yl]methyl}benzenesulfonamide]
37.3 | 220 |  | 347 | 82.1 | > 5 | C[C@]12Cc3cnn(-c4ccc(F)cc4)c3C=C1CC[C@@H]2CN(CCO)S(=O)(=O)c1ccccc1F [Example 17, 2-fluoro-N-{[(4αR,5S)-1-(4-fluorophenyl)-4α-methyl-1,4,4α,5,6,7-hexahydrocyclopenta[f]indazol-5-yl]methyl}-N-(2-hydroxyethyl)benzenesulfonamide]
47.8 | 88.4 | 21.7 | 486 | 69.5 | > 5 | C[C@]12Cc3cnn(-c4ccc(F)cc4)c3C=C1CC[C@@H]2CN(CC1(O)CCCCC1)S(=O)(=O)c1ccccc1F [Example 201, 2-fluoro-N-{[(4αR,5S)-1-(4-fluorophenyl)-4α-methyl-1,4,4α,5,6,7-hexahydrocyclopenta[f]indazol-5-yl]methyl}-N-[(1-hydroxycyclohexyl)methyl]benzenesulfonamide]

— patent US8299048B2, “Hexahydrocyclopentyl[f]indazole sulfonamides and derivatives thereof as selective glucocorticoid receptor modulators” (Merck Sharp & Dohme Corp., priority 2008, dated 2012)
